Experimental data from patent US20220324835A1 (Nurix Therapeutics, Inc., priority 2018, published 2022).
Read-outs that look alike come from different tables or passages of the source.

Columns and labels:
T-cell [1] = experiment: IL-2 secretion from T-cells co-stimulated with anti-CD3 and anti-CD28 antibody (Biological Example 2); format: cell-based, human; details: Homo sapiens, T-cell, primary human total T-cells
Method in brief: (§1)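 No assay protocol given; T-cells stimulated with anti-CD3 alone or anti-CD3 plus anti-CD28, with or without Cbl-b inhibitor. Activation read as IL-2 secretion or CD25 surface staining, expressed as fold over baseline from uninhibited cells […].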

T-cell [2] = experiment: CD25 cell surface staining on T-cells co-stimulated with anti-CD3 and anti-CD28 antibody (Biological Example 2); format: cell-based, human; details: Homo sapiens, T-cell, primary human total T-cells
Method in brief: as §1

Cbl-b = Cbl-b (Homo sapiens, UniProt Q13191); experiment: Cbl-b activity assay (Cbl-b inhibition assay), TR-FRET of Cbl-b interaction with UbcH5B-Ub; format: biochemical; details: assay buffer with 100 mM NaCl, 60 nM Src kinase; read-out: Cbl-b activity IC50
Sequence of Cbl-b (Q13191 36-427): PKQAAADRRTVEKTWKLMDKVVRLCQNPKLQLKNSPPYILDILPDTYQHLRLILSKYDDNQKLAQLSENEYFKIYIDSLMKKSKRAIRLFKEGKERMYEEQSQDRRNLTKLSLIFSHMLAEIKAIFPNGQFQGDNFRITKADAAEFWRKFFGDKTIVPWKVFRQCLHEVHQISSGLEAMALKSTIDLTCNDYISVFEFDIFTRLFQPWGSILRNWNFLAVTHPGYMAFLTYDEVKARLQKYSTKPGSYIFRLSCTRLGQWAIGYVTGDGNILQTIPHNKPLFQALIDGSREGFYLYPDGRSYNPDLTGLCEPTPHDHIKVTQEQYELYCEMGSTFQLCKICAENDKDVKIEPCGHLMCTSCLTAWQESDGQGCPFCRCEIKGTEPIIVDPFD
Method in brief: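 TR-FRET readout of Cbl-b binding to Bodipy-fluorescein N-terminally labeled Ub conjugated to UbcH5B C85K, measured with compound present. After compound incubation, 60 nM Src kinase with 1 mM ATP and 5 mM MgCl2 (final) was added for 1.5 h, then a further 1 h incubation; asterisked values used 50 mM NaCl buffer and 30 nM Src.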

T-cell [3] = experiment: IL-2 secretion from T-cells stimulated with anti-CD3 antibody alone (Biological Example 2); format: cell-based; details: primary human total T-cells, read-out: IL-2 secretion, Anti-CD3 stimulation, fold change over baseline; for fold induction at 1 µM: 1 μM compound; for fold induction at 8 µM: 8 μM compound
T-cell [4] = experiment: CD25 cell surface staining on T-cells stimulated with anti-CD3 antibody alone (Biological Example 2); format: cell-based; details: primary human total T-cells, baseline = anti-CD3/anti-CD28 stimulated cells without inhibitor, read-out: CD25 staining, Anti-CD3 stimulation, fold change over baseline; for fold induction at 1 µM: 1 μM compound; for fold induction at 8 µM: 8 μM compound
primary human NK cells = experiment: NK cell activation assessed by cytokine secretion (coculture with K562 NucRed target cells); format: cell-based
Procedure: Peripheral blood mononuclear cells (PBMC) were obtained either: 1) by using Ficoll-Paque™ (GE Healthcare) for separation of peripheral blood hematopoietic cells from buffy coats of healthy human donors; or 2) directly from LeukoPak donations. […] The cells were cultured overnight with IL-2 (60 ng/mL) at 37° C. 5% CO2. Cbl-b inhibitors were added 1 hour prior to stimulation and incubated at 37° C. 5% CO2 at a specific concentration (e.g., 10 μM, 1 μM, or 0.1 μM) with a final DMSO concentration of <0.1%. NK cells were co-cultured with target cells that were engineered to have a red nucleus (K562 NucRed) measurable by flow cytometry. […] The cells were mixed at the indicated ratios (e.g., 5:1, 1:1, or 1:5) of NK (effector cells) to K562 NucRed (target cells) for 6 hours. Cell free supernatants were collected and analyzed for cytokine secretion (e.g. TNFα, IFNγ, or MIP1β) by ELISA or Luminex multiplex kits following the manufacturer's protocol. IFNγ secretion was assessed using an R&D Systems ELISA kit (Catalog #DY285), TNFα secretion was assessed using an R&D Systems ELISA kit (Catalog #DY210), and MIP1β secretion was assessed using an R&D Systems ELISA kit (Catalog #DY271).
Readouts were reported as fold change over baseline. Baseline for this study was the measurement obtained from primary human NK effector cells cocultured with K562 NucRed target cells in the absence of a Cbl-b inhibitor. For NK cells cocultured with K562 NucRed cells, changes greater than 2.0-fold over baseline for cytokine secretion were considered a positive response (Table 10a and 10b).

T-cell [5] = experiment: IL-2 secretion from T-cells stimulated with anti-CD3 antibody alone (Biological Example 2); format: cell-based, human; details: T-cell, fold change over baseline, primary human total T-cells, read-out: IL-2 secretion Anti-CD3 stimulation; for fold induction at 1 µM: 1 μM Cbl-b inhibitor; for fold induction at 8 µM: 8 μM Cbl-b inhibitor
T-cell [6] = experiment: CD25 cell surface staining on T-cells stimulated with anti-CD3 antibody alone (Biological Example 2); format: cell-based, human; details: T-cell, fold change over baseline, primary human total T-cells, read-out: CD25 staining Anti-CD3 stimulation; for fold induction at 1 µM: 1 μM Cbl-b inhibitor; for fold induction at 8 µM: 8 μM Cbl-b inhibitor
Cbl-b (residues 36-427) = Cbl-b (residues 36-427) (Homo sapiens, UniProt Q13191); experiment: Cbl-b binding assay (SPR, Biacore T200); details: 20° C., 1:1 binding model
Sequence of Cbl-b (residues 36-427) (Q13191 36-427): as above
Method in brief: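 Affinities derived from global 1:1 steady-state or kinetic fits of double-referenced, solvent-corrected SPR data, 20 °C, NeutrAvidin-capture chip. Compound series (top 100 or 50 μM, 8–10 points) injected 50 s, 90–180 s dissociation. Asterisked values used 50 mM instead of 100 mM NaCl and 30 nM Src kinase.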

[7] = 0.3 μM compound, baseline = anti-CD3/anti-CD28 stimulated cells without inhibitor, read-out: IL-2 secretion, Anti-CD3/Anti-CD28 stimulation, fold change over baseline
[8] = 1 μM compound, baseline = anti-CD3/anti-CD28 stimulated cells without inhibitor, read-out: IL-2 secretion, Anti-CD3/Anti-CD28 stimulation, fold change over baseline
[9] = 4 μM compound, baseline = anti-CD3/anti-CD28 stimulated cells without inhibitor, read-out: IL-2 secretion, Anti-CD3/Anti-CD28 stimulation, fold change over baseline
[10] = 0.3 μM compound, baseline = anti-CD3/anti-CD28 stimulated cells without inhibitor, read-out: CD25 staining, Anti-CD3/Anti-CD28 stimulation, fold change over baseline
[11] = 1 μM compound, baseline = anti-CD3/anti-CD28 stimulated cells without inhibitor, read-out: CD25 staining, Anti-CD3/Anti-CD28 stimulation, fold change over baseline
[12] = 4 μM compound, baseline = anti-CD3/anti-CD28 stimulated cells without inhibitor, read-out: CD25 staining, Anti-CD3/Anti-CD28 stimulation, fold change over baseline
[13] = K562, 1:1 E/T, read-out: IFNγ secretion
[14] = K562, 1:1 E/T, read-out: MIP1β secretion
[15] = K562, 1:1 E/T, read-out: TNFα secretion
[16] = K562, 5:1 E/T, read-out: IFNγ secretion
[17] = K562, 5:1 E/T, read-out: MIP1β secretion
[18] = K562, 5:1 E/T, read-out: TNFα secretion
[19] = fold change over baseline, 0.3 μM Cbl-b inhibitor, read-out: IL-2 secretion Anti-CD3/Anti-CD28 stimulation
[20] = fold change over baseline, 1 μM Cbl-b inhibitor, read-out: IL-2 secretion Anti-CD3/Anti-CD28 stimulation
[21] = fold change over baseline, 4 μM Cbl-b inhibitor, read-out: IL-2 secretion Anti-CD3/Anti-CD28 stimulation
[22] = fold change over baseline, 0.3 μM Cbl-b inhibitor, read-out: CD25 staining Anti-CD3/Anti-CD28 stimulation
[23] = fold change over baseline, 1 μM Cbl-b inhibitor, read-out: CD25 staining Anti-CD3/Anti-CD28 stimulation
[24] = fold change over baseline, 4 μM Cbl-b inhibitor, read-out: CD25 staining Anti-CD3/Anti-CD28 stimulation

Row | SMILES | fold induction at 0.3 µM (T-cell [1]; [7]) | fold induction at 1 µM (T-cell [1]; [8]) | fold induction at 4 µM (T-cell [1]; [9]) | fold induction at 0.3 µM (T-cell [2]; [10]) | fold induction at 1 µM (T-cell [2]; [11]) | fold induction at 4 µM (T-cell [2]; [12]) | IC50 (Cbl-b) [nM] | fold induction at 1 µM (T-cell [3]) | fold induction at 8 µM (T-cell [3]) | fold induction at 1 µM (T-cell [4]) | fold induction at 8 µM (T-cell [4]) | fold induction at 0.3 µM (T-cell [1]; [19]) | fold induction at 1 µM (T-cell [1]; [20]) | fold induction at 4 µM (T-cell [1]; [21]) | fold induction at 1 µM (T-cell [5]) | fold induction at 8 µM (T-cell [5]) | fold induction at 0.3 µM (T-cell [2]; [22]) | fold induction at 1 µM (T-cell [2]; [23]) | fold induction at 4 µM (T-cell [2]; [24]) | fold induction at 1 µM (T-cell [6]) | also measured
1 | Cn1cnnc1C(F)(F)[C@](C)(F)c1cccc(N2Cc3c(cc(C(=O)N4CC(C(F)F)C4)cc3C(F)(F)F)C2=O)c1 [Compound 439, (R)-6-(3-(difluoromethyl)azetidine-1-carbonyl)-2-(3-(1,1,2-trifluoro-1-(4-methyl-4H-1,2,4-triazol-3-yl)propan-2-yl)phenyl)-4-(trifluoromethyl)isoindolin-1-one] | 1.01 to 2.5 | 1.01 to 2.5 | 1.01 to 2.5 | 1.01 to 1.3 | 1.01 to 1.3 | 1.01 to 1.3 | 301 to 1000 | 0.051 to 0.1 | 0.051 to 0.1 | 0.601 to 0.8 | 0.801 to 1 |  |  |  |  |  |  |  |  |  | 
2 | C[C@@H](Sc1nncn1C)c1cccc(NC(=O)c2ccc3ccccc3n2)c1 [Compound 9b, (R)-N-(3-(1-((4-methyl-4H-1,2,4-triazol-3-yl)thio)ethyl)phenyl)quinoline-2-carboxamide] |  |  |  |  |  |  |  |  |  |  |  |  |  |  |  |  |  |  |  |  | fold induction at 1 µM (primary human NK cells; [13]): < 1; fold induction at 1 µM (primary human NK cells; [14]): 1.01 to 2; fold induction at 1 µM (primary human NK cells; [15]): < 1; fold induction at 10 µM (primary human NK cells; [13]): < 1; fold induction at 10 µM (primary human NK cells; [14]): < 1; fold induction at 10 µM (primary human NK cells; [15]): < 1; fold induction at 1 µM (primary human NK cells; [16]): < 1; fold induction at 1 µM (primary human NK cells; [17]): < 1; fold induction at 1 µM (primary human NK cells; [18]): < 1; fold induction at 10 µM (primary human NK cells; [16]): < 1; fold induction at 10 µM (primary human NK cells; [17]): < 1; fold induction at 10 µM (primary human NK cells; [18]): < 1
3 | CC(Cc1nncn1C)c1cc(C2CCC2)cc(N2Cc3c(cccc3C(F)(F)F)C2=O)c1 (centres unmarked) [Compound 476, 2-(3-cyclobutyl-5-(1-(4-methyl-4H-1,2,4-triazol-3-yl)propan-2-yl)phenyl)-4-(trifluoromethyl)isoindolin-1-one] | 1.01 to 2.5 | 1.01 to 2.5 | 1.01 to 2.5 | 1.01 to 1.3 | 1.01 to 1.3 | 1.01 to 1.3 | 301 to 1000 | 0.051 to 0.1 | 0.051 to 0.1 | 0.601 to 0.8 | 0.801 to 1 |  |  |  |  |  |  |  |  |  | 
4 | Cc1ccc(C(=O)Nc2cccc([C@@H](C)Cc3nccn3C)c2)nc1C1CC1 [Compound 331] |  |  |  |  |  |  | 301 to 1000 |  |  |  |  | 1.01 to 2.5 | 1.01 to 2.5 | 1.01 to 2.5 | < 0.05 | 0.051 to 0.1 | < 1 | < 1 | 1.01 to 1.3 | < 0.6 | fold induction at 8 µM (T-cell [6]): 0.601 to 0.8; Kd (Cbl-b (residues 36-427)): 1000 to 3000 nM
5 | C[C@@H](c1cccc(N2Cc3c(cccc3C(F)(F)F)C2=O)c1)C(F)c1nncn1C (stereo in doubt) [Compound 474, 2-(3-((1S, 2S)-1-fluoro-1-(4-methyl-4H-1,2,4-triazol-3-yl)propan-2-yl)phenyl)-4-(trifluoromethyl)isoindolin-1-one] | 1.01 to 2.5 | 1.01 to 2.5 | 2.51 to 5 | 1.01 to 1.3 | 1.01 to 1.3 | 1.01 to 1.3 |  | 0.051 to 0.1 | > 0.201 | 0.601 to 0.8 | > 1 |  |  |  |  |  |  |  |  |  | 
6 | CNC(=O)COc1ccc2cnc(C(=O)Nc3cccc([C@H](C)Sc4nncn4C)c3)cc2c1 [Compound 306a, (S)-N-(3-(1-(4-methyl-4H-1,2,4-triazol-3-ylthio)ethyl)phenyl)-6-(2-(methylamino)-2-oxoethoxy)isoquinoline-3-carboxamide] |  |  |  |  |  |  | 100 to 300 |  |  |  |  | < 1 | 1.01 to 2.5 | 1.01 to 2.5 | < 0.05 | < 0.05 | 1.01 to 1.3 | 1.01 to 1.3 | 1.01 to 1.3 | < 0.6 | fold induction at 8 µM (T-cell [6]): 0.801 to 1; Kd (Cbl-b (residues 36-427)): 100 to 300 nM
7 | C[C@H](Cc1nncn1C)c1cc(N[C@H]2CCOC2)nc(N2Cc3c(cccc3C(F)(F)F)C2=O)c1 (stereo in doubt) [Compound 361, 2-(4-((R)-1-(4-methyl-4H-1,2,4-triazol-3-yl)propan-2-yl)-6-((R)-THF-3-ylamino)pyridin-2-yl)-4-(trifluoromethyl)isoindolin-1-one] |  |  |  |  |  |  | 301 to 1000 |  |  |  |  | 1.01 to 2.5 | 1.01 to 2.5 | 1.01 to 2.5 | 0.051 to 0.1 | 0.151 to 0.2 | < 1 | 1.01 to 1.3 | 1.01 to 1.3 | 0.601 to 0.8 | fold induction at 8 µM (T-cell [6]): 0.801 to 1; Kd (Cbl-b (residues 36-427)): 301 to 1000 nM
